Source: patent US10172835B2, “Anticancer agent composition” (J-Pharma Co., Ltd., priority 2014, dated 2019)

Experiments:
normal murine thymocytes = assay: WST-1 cell viability of normal thymocytes; format: cell-based
Experimental: (§1) Two different assays were employed: i) In a 96-well plate format, cells (4.0±0.1×10^4 per well; 100 μL) were incubated with effectors (48 h, 37° C.; n=4 per experiment) and then WST-1 reagent (10 μL; Roche Diagnostics) added to each well of 96-well plates, incubated, and the formazan production was measured at 490 nm; and ii) cells (2.0±0.1×10^4 per well; 100 μL) were incubated with effectors (48 h, 37° C.; n=4 per experiment) and then bromodeoxyuridine reagent (10 μL/well; Roche Diagnostics) was added to each well and incubated (8 h, 37° C.). The cells were then fixed, denatured and incubated with anti-BrdU-conjugated with peroxidase (POD) antibody (100 μL/well). Colorimetric substrate (TMB: tetramethyl-benzidine; 100 μL/well) was added and BrdU incorporation quantified via optical density measurement (450 nm) which corresponds to DNA synthesis and proliferating cells.

KO99L cells [1] = assay: Cell death by flow cytometry after DAPI staining, KO99L cells; format: cell-based, murine; settings: 48 h
[2] = test system: normal resting or activated human PBL cells; assay: Cell death analysis of resting or activated human PBL; format: cell-based
[3] = test system: human Peripheral Blood Lymphocytes; assay: Proliferative response of human PBL; format: cell-based; settings: 1.0-50.0 μM
KO99L cells [4] = assay: Annexin-V / DAPI apoptosis assay, KO99L cells; format: cell-based, murine; settings: 48 hr
Experimental: Apoptosis assessment was performed by measuring phosphatidyl-serine membrane redistribution via annexin-V-FITC (Invitrogen). Cells (5.0±0.1×10^5 per well; 2.0 mL) were incubated with effectors, and re-suspended in staining solution (110 μL; Annexin-V ( 1/10) and incubated in the dark (15 min, RT). […] Basal apoptosis and necrosis were determined on control untreated cells.

mTOR (phospho-S6RP) = assay: Phospho-Flow staining of phospho-S6RP in primary T-ALL samples; format: cell-based, human; settings: two primary T-ALL samples, 10 μM
Experimental: Cells (1.0±0.1×10^6 per well; 1 mL) were incubated with various effectors (24 h, 37° C.) and then permeabilized with Cytofix/Cytoperm buffer (100 μL, 30 min, 4° C.) and then washed with PermWash (BD Biosciences) and stained with phospho-Ser235/236-S6RP antibody (30 min, 4° C.). After an additional PermWash, cells were then stained with a secondary anti-rabbit-alexaF 488 (20 μg/mL; Life Technologies) for (30 min, 4° C.). Cells were then washed in PermWash and re-suspended in staining buffer (PBS+0.1% bovine serum albumin+1.0% paraformaldehyde) and analyzed by flow cytometry on a MacsQuant Analyser (Miltenyi Biotech).

CHOP = assay: Western blot of CHOP protein levels, KO99L cells; format: cell-based, murine
Experimental: Cell extracts were prepared using a cell lysis buffer (50 mM HEPES, pH 7.4, 150 mM NaCl, 20 mM EDTA, 100 mM NaF, 10 mM Na3VO4, 0.5% nonyl phenoxypolyethoxylethanol (NP40) supplemented with a cocktail of protease inhibitors. After SDS-PAGE separation and transfer to nitrocellulose immunoblotting was performed using the following antibodies against: Akt (Cell Signaling Technologies, #9272), CHOP (#2895), cleaved caspase 3 (#9664), c-Myc (#9402), eIF2a (#9721), 4EBP1 (#9644), LC3A/B (#12741), PARP (#9542), pJnk (T183/Y185) (#9251), pSer235-236-S6RP (#4856), pSer473-Akt (#9271), pSer65-4EBP1 (#9451) and S6RP (#2217); Bax (Sigma-Aldrich, B8429); PUMA (Abcam, ab54288); Bak (Millipore, 06536); ATF4 (Santa Cruz Biotechnologies, sc200), GADD34 (sc8327), Hsp60 (sc-1722), Hsp90 (sc-13119) and XBP1 (sc-7160); ATF6 (Imgenex, IMG-273).

KO99-RJ cells = assay: WST-1 cell viability of COMPOUND-JP-resistant KO99-RJ cells; format: cell-based, murine; settings: Mus musculus, 48 h, read-out: decrease in cell viability
Experimental: as §1

KO99-S cells = assay: Cell death (PI staining) of parental KO99-S cells; format: cell-based, murine; settings: 48 h
[5] = test system: Panc-1 cell derived from human pancreatic cancer; assay: MTT proliferation of Panc-1 cells; format: cell-based; settings: Panc-1, culture 5 days
Experimental: The culture in the absence of COM-JP and in the presence of COM-JP with different concentrations in the culture medium of each cancer cell was continued for 5 days. Proliferation activity of the cell on each elapsed day was measured by a MTT method.

[6] = test system: HT-29 cell derived from human large intestine cancer; assay: Tumor growth in nude mouse inoculated subcutaneously with HT-29 cells; format: in vivo; settings: compared with untreated control group
Experimental: A HT-29 cell was inoculated subcutaneously into a mouse, and the transition of the size of the tumor lump was measured with time from the day on which the tumor has grown to a certain size, when each of COM-JP and 5-FU was used alone or in combination.

tPTEN−/− cells = assay: Global protein synthesis (data not shown); format: cell-based, murine
caspase 3 = assay: Active caspase 3 staining with Red-DEVD-fmk, KO99L cells; format: cell-based, murine; settings: countered by QvD-OPH
Experimental: Cells (1.0±0.1×10^6 per well; 1.0 mL) were stimulated with different COMPOUND-JP doses with or without caspase3 inhibitor Qvd-OH (20 μM). Cells were then stained with caspase 3 inhibitor conjugated (RED-DEVD-FMK; Biovision) and incubated (1.0 h, 37° C. at 5% CO2). Cells were washed with Wash Buffer, then centrifuged (3000 rpm, 5.0 min) and stained with annexin V-FITC (10 μL/mL; Miltenyi Biotech) for 30 min and DAPI (1.0 μg/mL) added prior to examination via a MacsQuant Analyser.

HT-29 colon cancer cells = settings: Reference 43; cited from earlier work

With Nc1cc(COc2c(Cl)cc(C[C@H](N)C(=O)O)cc2Cl)c2oc(-c3ccccc3)nc2c1 [COMPOUND-JP, O-(5-amino-2-phenylbenzoxazole-7-yl)methyl-3,5-dichloro-L-tyrosine] the “toxicity in normal murine thymocytes” value (normal murine thymocytes) was “non-toxic”, the “decrease of COMPOUND-JP induced cell death upon EAA addition” value (KO99L cells [1]) was 2.5 fold and the cell death [2] was “did not induce cell death”. For the same compound, the PBL cell proliferation [3] was “did not significantly alter”, the “levels of apoptosis (annexin-V+ and annexin-V+/DAPI+) compared to control” value (KO99L cells [4]; 10.0 μM) was 2.8 fold and the “levels of apoptosis (annexin-V+ and annexin-V+/DAPI+) compared to control” value (KO99L cells [4]; 20.0 μM) was 3.8 fold. For the same compound, the “phospho-S6RP by phospho-Flow cytometry” value (mTOR (phospho-S6RP)) was “mTOR inhibitory effect”, the “COMPOUND-JP mediated CHOP induction upon EAA supplementation” value (CHOP; 10 μM, complete medium plus EAA) was “prevented CHOP induction” and the “CHOP expression, time course” value (CHOP; FIG. 5A, COMPOUND-JP 10.0 μM, L-Asp, Erw 2.5 units/ml, 2.0-24 h) was “rapidly induced CHOP expression”. The CHOP induction (CHOP; FIG. 5B, COMPOUND-JP 5.0 and 10.0 μM, L-Asp 2.5 units/ml, rapamycin 10.0 nM, MK-2206 10.0 μM, KU0063794 10.0 μM) was “profound and COMPOUND-JP dose dependent induction”, the cytotoxicity at 40 µM (KO99-RJ cells) was roughly 40% and the cell death (KO99-S cells) was “concentration dependent cell death”. For the same compound, the proliferation activity [5] was “dose-dependent decrease”, the “increase of the tumor, single administration” value [6] was “more significant decrease” and the “interference with global protein synthesis” value (tPTEN−/− cells) was “did not observe any interference”. For the same compound, the “cell-associated fluorescence via Red-DEVD-fmk (caspase 3 activation)” value (caspase 3) was “dose and time-dependent” and the “growth of HT-29 colon cancer cells transplanted in nude mice” value (HT-29 colon cancer cells) was “reduce the growth”.
